Like-named read-outs stand apart in the source and are kept apart here.
Columns and labels:
[1] = target: human m-NAD(P)-ME WT and the exosite mutants; assay: Size distribution analysis by analytical ultracentrifugation of WT and exosite mutants, protein only, with NAD+ or with ATP; format: binding; details: PBS
Experimental: Size distribution of the monomer-dimer-tetramer equilibrium of the enzyme was monitored using a Beckman Optima XL-A analytical ultracentrifuge instrument. A protein sample (380 µl) and reference buffer (400 µl) were loaded into a well-assembled cell with a double-sector centerpiece. Experiments were performed with an An-50Ti rotor at 42,000 rpm and 20 °C for 3 to 4 hours. The scans for sedimentation velocity data were monitored by the UV absorbance at 280 nm with a 480 s interval time and a 0.002 cm step size in continuous distribution mode. Using the SEDFIT 9.4c software[31]–[34], the size distribution of the enzyme was analyzed with a resolution corresponding to N = 200 to cover the range of sedimentation coefficient (S) values from approximately 0.1 to 20, a confidence level of p = 0.95, and a best-fit average anhydrous frictional ratio (f/f0). The dissociation constants of monomer-dimer-tetramer self-association model were globally analyzed by using the SEDPHAT software.
All sedimentation velocity data were globally fitted by a monomer-dimer-tetramer equilibrium model by the software program of SEDPHAT[34]. The parameters protein partial specific volume, solvent density and viscosity were calculated with the […] software program.
Figure 4 Continuous sedimentation coefficient distribution of human m-NAD(P)-ME WT and the exosite mutants. The enzyme concentrations were fixed at 1.6, 4.7, and 14.2 μM in PBS. […] (a) ME2_WT; (b) ME2_H154V; (c) ME2_K156A; (d) ME2_G192A; (e) ME2_R194N; (f) ME2_R197E; (g) ME2_R197D.
Figure 5 Continuous sedimentation coefficient distribution of human m-NAD(P)-ME WT and the exosite mutants. The enzyme concentrations were fixed at 1.6, 4.7, and 14.2 μM in PBS. […] (a) ME2_N482G; (b) ME2_N482A; (c) ME2_R542V; (d) ME2_Y552F; (e) ME2_R556Q; (f) ME2_R556V.

[2] = tested on: human m-NAD(P)-ME WT and exosite mutants; assay: Enzyme kinetic assay (NADH production, absorbance at 340 nm) of WT and exosite mutants; format: biochemical; details: for K0.5,malate / Km / kcat: pH 7.4
Experimental: The ME reaction was measured with the production rate of NADH or NADPH via the absorbance at 340 nm. The reaction mixture in a saturated condition included 1 mM NAD(P)^+, 40 mM malate, and 10 mM MgCl2 in 50 mM Tris-HCl (pH 7.4). To determine the Km and kcat values, the concentration of one substrate was varied around its Km values while the concentrations of the other components were fixed at saturated concentrations.
The cooperativity of malate was determined with the following equation: ν=Vmax×[Malate]^h/K0.5h+[Malate]^h where ν is the initial velocity, Vmax is the maximum rate of the reaction, K0.5 is the substrate concentration at half-maximal velocity, and h is the Hill coefficient, which represents the degree of cooperativity.

[3] = protein only, read-out: Kd,12 monomer-dimer dissociation constant
[4] = protein only, read-out: Kd,24 dimer-tetramer dissociation constant
[5] = read-out: Kd,12(ATP), with 0.5 mM ATP
[6] = read-out: Kd,24(ATP), with 0.5 mM ATP
[7] = with 0.4 mM NAD+, read-out: Kd,12(NAD)
[8] = with 0.4 mM NAD+, read-out: Kd,24(NAD)

Substance | Kd [1, 3] | Kd [1, 4] | Kd [1, 5] | Kd [1, 6] | Kd [1, 7] | Kd [1, 8] | h (Hill coefficient, malate cooperativity) ([2]; (+) with 5 mM fumarate) | K0.5,malate ([2]; (+) with 5 mM fumarate) | Km ([2]; (+) with 5 mM fumarate) | kcat ([2]; (+) with 5 mM fumarate) | h (Hill coefficient, malate cooperativity) ([2]; (−) without fumarate) | K0.5,malate ([2]; (−) without fumarate) | Km ([2]; (−) without fumarate) | kcat ([2]; (−) without fumarate) | kcat compared with the WT value [2]
G192A: exosite mutant of human m-NAD(P)-ME | 90 ± 2 nM | 300 ± 1 nM | 210 ± 10 nM | 400 ± 10 nM | 60 ± 2 nM | 180 ± 10 nM | 1.19 ± 0.10 | 2.65 ± 0.18 mM | 320 ± 30 µM | 230.0 ± 4.4 s⁻¹ | 1.30 ± 0.19 | 11.18 ± 2.08 mM | 570 ± 70 µM | 210.6 ± 7.7 s⁻¹ | 
H154V: exosite mutant of human m-NAD(P)-ME | 30 ± 2 nM | 460 ± 3 nM | 460 ± 10 nM | 4030 ± 40 nM | 70 ± 1 nM | 160 ± 1 nM | 1.08 ± 0.05 | 4.94 ± 0.26 mM | 530 ± 40 µM | 140.5 ± 2.5 s⁻¹ | 1.99 ± 0.10 | 15.31 ± 0.51 mM | 970 ± 60 µM | 134.6 ± 2.9 s⁻¹ | reduced to half of the WT value
K156A: exosite mutant of human m-NAD(P)-ME | 120 ± 4 nM | 320 ± 10 nM | 320 ± 10 nM | 800 ± 20 nM | 1360 ± 50 nM | 80 ± 3 nM | 1.01 ± 0.10 | 3.56 ± 0.40 mM | 320 ± 30 µM | 223.6 ± 5.1 s⁻¹ | 1.65 ± 0.04 | 10.12 ± 0.21 mM | 650 ± 70 µM | 209.9 ± 6.2 s⁻¹ | 
N482A: exosite mutant of human m-NAD(P)-ME | 290 ± 10 nM | 950 ± 30 nM | 1440 ± 40 nM | 350 ± 10 nM | 580 ± 30 nM | 970 ± 50 nM | 1.04 ± 0.14 | 1.02 ± 0.08 mM | 20 ± 10 µM | 215.6 ± 0.1 s⁻¹ | 1.87 ± 0.70 | 17.43 ± 5.10 mM | 700 ± 170 µM | 169.1 ± 0.6 s⁻¹ | 
N482G: exosite mutant of human m-NAD(P)-ME | 50 ± 10 nM | 180 ± 2 nM | 100 ± 3 nM | 60 ± 2 nM | 380 ± 2 nM | 40 ± 10 nM | 1.00 ± 0.09 | 4.23 ± 0.47 mM | 610 ± 40 µM | 309.7 ± 11.5 s⁻¹ | 1.59 ± 0.14 | 23.81 ± 2.70 mM | 1500 ± 140 µM | 263.2 ± 19.7 s⁻¹ | 
R194N: exosite mutant of human m-NAD(P)-ME | 310 ± 10 nM | 230 ± 10 nM | 80 ± 1 nM | 1440 ± 30 nM | 170 ± 10 nM | 40 ± 1 nM | 1.08 ± 0.08 | 5.11 ± 0.50 mM | 760 ± 70 µM | 227.4 ± 6.1 s⁻¹ | 2.18 ± 0.15 | 19.53 ± 0.91 mM | 1600 ± 160 µM | 204.4 ± 8.3 s⁻¹ | 
R197D: exosite mutant of human m-NAD(P)-ME | 800 ± 20 nM | 260 ± 10 nM | 690 ± 20 nM | 110 ± 3 nM | 60 ± 3 nM | 810 ± 40 nM | 1.06 ± 0.05 | 4.98 ± 0.28 mM | 130 ± 20 µM | 216.0 ± 0.1 s⁻¹ | 1.76 ± 0.23 | 17.82 ± 2.01 mM | 460 ± 50 µM | 206.8 ± 0.1 s⁻¹ | 
R197E: exosite mutant of human m-NAD(P)-ME | 30 ± 1 nM | 2330 ± 80 nM | 100 ± 3 nM | 590 ± 20 nM | 100 ± 3 nM | 1110 ± 40 nM | 1.24 ± 0.10 | 4.55 ± 0.37 mM | 1110 ± 90 µM | 187.6 ± 5.2 s⁻¹ | 1.65 ± 0.30 | 23.37 ± 4.48 mM | 2370 ± 280 µM | 165.2 ± 20.4 s⁻¹ | 
R542V: exosite mutant of human m-NAD(P)-ME | 10 ± 1 nM | 440 ± 10 nM | 20 ± 1 nM | 9870 ± 380 nM | 1870 ± 80 nM | 210 ± 10 nM | 1.06 ± 0.11 | 5.89 ± 0.78 mM | 910 ± 180 µM | 239.3 ± 12.6 s⁻¹ | 1.43 ± 0.09 | 27.00 ± 3.44 mM | 2180 ± 270 µM | 175.6 ± 14.0 s⁻¹ | 
R556Q: exosite mutant of human m-NAD(P)-ME | 10 ± 3 nM | 1750 ± 60 nM | 400 ± 10 nM | 180 ± 10 nM | 180 ± 10 nM | 910 ± 30 nM | 1.20 ± 0.07 | 4.75 ± 0.31 mM | 690 ± 60 µM | 251.8 ± 5.6 s⁻¹ | 1.71 ± 0.27 | 19.01 ± 2.40 mM | 1160 ± 220 µM | 220.5 ± 16.2 s⁻¹ | 

— publication PMC6591397, “Functional Roles of Metabolic Intermediates in Regulating the Human Mitochondrial NAD(P)^+-Dependent Malic Enzyme” (Scientific Reports, 2019)
